Experimental data taken from US20260014085A1, “MILK DERIVED EXOSOMES AND USES THEREOF” (VIRGINIA TECH INTELLECTUAL PROPERTIES, INC., priority 2022, published 2026).

Legend:
[1] = test system: B5 Clone (High Cx43) MDCK cells; test: mEV uptake in scratch wound model, B5 Clone (High Cx43) MDCK; assay type: cell-based, canine
Method: Cells are cultured to confluency, then scratched in low serum conditions (1% NCS), rinsed, and supplied fresh medium with 20 μg/mL CTDR-Tagged mEV's. […] (FIG. 4B) Unwounded Parent (Low Cx43) MDCKs; (FIG. 4C) Wounded Parent (Low Cx43) MDCKs; (FIG. 4D) Unwounded B5 Clone (High Cx43) MDCKs; (FIG. 4E) Wounded B5 Clone (High Cx43) MDCKs. […] (FIG. 4G) Wounded B5 Clone (High Cx43) MDCKs provided mEV's; (FIG. 4H) Wounded B5 Clone (High Cx43) MDCKs provided mEV's and Gap27, a Connexin inhibitor.
FIG. 5A-5C—Milk-Derived Extracellular Vesicle targeting capabilities to high Cx43 expressing B5 Clone MDCKS are completely eliminated via use of exogenous Apyrase. Cells are cultured to confluency, then scratched in low serum conditions (1% NCS), rinsed, and supplied fresh medium with 20 μg/mL CTDR-Tagged mEV's with or without 100 uM Apyrase. (FIG. 5A) Wounded B5 Clone (High Cx43) given CTDR-Tagged mEV's; (FIG. 5B) Wounded B5 Clone (High Cx43) given CTDR tagged mEV's with 100 µM Apyrase.
The associated bar graph for particle count analysis is shown above in FIG. 4A. […] This insinuates that mEV uptake by cells is mediated by Cx43 in both unwounded and wounded situations, with unwounded B5 clone cells experiencing similar uptake levels to that of wounded Parent Lampe cells (FIG. 4A). Applicant then tested for the mechanism of uptake in these cells—B5 clone cells were scratch wounded and given fluorescently tagged mEV's, then some were also provided with Gap27 (FIG. 4F), a known Connexin channel blocker. When co-incubated with Gap27 (D2), mEV uptake was blocked by over 25% (FIG. 4F) when compared to those untreated. […] Another mechanism of uptake of mEV's in a wounded environment that Applicant has discovered is ATP (FIG. 5A-5C).
Small extracellular vesicles known as exosomes (nanovesicles of less than or equal to 150 nm diameter) are secreted by nearly all cell types and are thought to have key assignments in intercellular signaling. Reports that exosomes evade immune detection, show propensity to cross tissue boundaries (e.g., the blood-brain barrier) and can be orally administered has also attracted increasing interest in therapeutic applications, including as drug delivery devices. Applicant recently developed a method for large-scale purification of bovine milk-derived extracellular vesicles (Marsh et al., Nanotheranostics. 2021 Jul. 5; 5(4):488-498. doi: 10.7150/ntno.62213. eCollection 2021). […] Girao and co-workers determined that Connexin 43 (Cx43) is present in exosomes derived from cultured cells expressing Cx43, where this gap junction protein has assignments in cellular uptake of exosomal cargo (Soares et al., Sci Rep. 2015 Aug. 19; 5:13243. doi: 10.1038/srep13243). […]

[2] = test system: B5 Clone (High Cx43) MDCK cells; test: Scratch wound closure (migration index), B5 Clone (High Cx43) MDCK; assay type: cell-based, canine; details: B5 Clone MDCKs, 100 uM Apyrase
Method: FIG. 7A-7L—Milk-Derived Extracellular Vesicles contain endogenous bioactive capabilities in a Scratch-Wounded model of wound healing in Cx43-variable MDCK cells. Cells are cultured to confluency, then scratched in low serum conditions (1% NCS), rinsed, and supplied fresh medium with 20 μg/mL mEV's or 20 uL Vehicle (HEPES buffer). (FIG. 7A) Quantification of wound closure using ImageJ border zone analysis plugin software. Scratches are scanned and imaged at t=0 and scratch size is quantified, then after 8 hours, cells are stopped, fixed and imaged again, then final scratch size is quantified. Migration index is calculated by subtracting the final area from the starting and dividing by the average of vehicle control samples, giving a value of 1.0 for vehicle control. mEV's contain endogenous bioactivity that is Cx43 Dependent, with over 8× healing potential when cells contain enhanced Cx43 levels. […] (FIG. 7G) Quantification of wound closure using ImageJ border zone analysis plugin software. Scratches are scanned and imaged at t=0 and scratch size is quantified, then after 8 hours, cells are stopped, fixed and imaged again, then final scratch size is quantified. […]

Substance	mEV expression with added apyrase ([1]; wounded B5 Clone (High Cx43) MDCKs, 100 uM Apyrase)	reduction in mEV uptake with apyrase ([1]; wounded B5 Clone cells, co-incubated with 100 uM apyrase)	mEV wound healing capabilities with exogenous Apyrase [2]	mEV uptake blocked when co-incubated with Gap27 ([1]; scratch wounded B5 clone cells, compared to untreated)	mEV expression with added Gap27 ([1]; wounded B5 Clone (High Cx43) MDCKs)
Apyrase	significant and complete elimination	> 95%	heavily reduced		
Gap27: a known Connexin channel blocker (TEKTIFIIFML; UniProt P17302 204-214, looked up, fragment)				over 25%	statistical drop
